Assay results as given in article PMC9609070 (ACS Omega, 2022).
Read-outs that look alike come from different tables or passages of the source.

Columns and labels:
[1] = Preferential solvation analysis by inverse Kirkwood–Buff integrals; assay type: physicochemical; settings: NMP+water, T=298.15 K
[2] = Hildebrand solubility parameter of meloxicam; assay type: physicochemical; settings: expected from the solubility maximum in neat NMP; T=298.15 K
Solid-phase analyses = assay type: physicochemical; settings: after saturation in neat water, x1=0.50 mixture and neat NMP
[3] = neat water, x1=0.000; Thm=303.0 K; cited from earlier work
[4] = cited from earlier work

Cc1cnc(NC(=O)C2=C(O)c3ccccc3S(=O)(=O)N2C)s1 [Meloxicam, 4-hydroxy-2-methyl-N-(5-methyl-2-thiazolyl)-2H-1,2-benzothiazine-3-carboxamide-1,1-dioxide]
G2,3 (Kirkwood–Buff integral) ([1]; x1=0.10): –417.0 cm^3·mol^–1 | δx1,3 (preferential solvation parameter by NMP) ([1]; x1=0.10): −3.19 × 10^–2 | 100 δx1,3 (preferential solvation parameter by NMP) ([1]; x1=0.15): –0.64 | D (derivative of Gibbs energy of transfer vs x1) ([1]; x1=0.15): –51.33 kJ·mol^–1 | G1,3 (Kirkwood–Buff integral) ([1]; x1=0.15): –513.2 cm^3·mol^–1 | G2,3 (Kirkwood–Buff integral) ([1]; x1=0.15): –484.4 cm^3·mol^–1 | 100 δx1,3 (preferential solvation parameter by NMP) ([1]; x1=0.20): 1.92 | D (derivative of Gibbs energy of transfer vs x1) ([1]; x1=0.20): –45.42 kJ·mol^–1 | G1,3 (Kirkwood–Buff integral) ([1]; x1=0.20): –438.6 cm^3·mol^–1 | G2,3 (Kirkwood–Buff integral) ([1]; x1=0.20): –519.2 cm^3·mol^–1 | 100 δx1,3 (preferential solvation parameter by NMP) ([1]; x1=0.25): 3.70 | D (derivative of Gibbs energy of transfer vs x1) ([1]; x1=0.25): –39.89 kJ·mol^–1 | G1,3 (Kirkwood–Buff integral) ([1]; x1=0.25): –378.9 cm^3·mol^–1 | G2,3 (Kirkwood–Buff integral) ([1]; x1=0.25): –532.6 cm^3·mol^–1 | 100 δx1,3 (preferential solvation parameter by NMP) ([1]; x1=0.30): 4.75 | D (derivative of Gibbs energy of transfer vs x1) ([1]; x1=0.30): –34.76 kJ·mol^–1 | G1,3 (Kirkwood–Buff integral) ([1]; x1=0.30): –332.9 cm^3·mol^–1 | G2,3 (Kirkwood–Buff integral) ([1]; x1=0.30): –533.5 cm^3·mol^–1 | 100 δx1,3 (preferential solvation parameter by NMP) ([1]; x1=0.35): 5.27 | D (derivative of Gibbs energy of transfer vs x1) ([1]; x1=0.35): –30.04 kJ·mol^–1 | G1,3 (Kirkwood–Buff integral) ([1]; x1=0.35): –298.0 cm^3·mol^–1 | G2,3 (Kirkwood–Buff integral) ([1]; x1=0.35): –527.4 cm^3·mol^–1 | δx1,3 (preferential solvation parameter by NMP) ([1]; x1=0.40 (maximum)): 5.41 × 10^–2 | 100 δx1,3 (preferential solvation parameter by NMP) ([1]; x1=0.40): 5.41 | D (derivative of Gibbs energy of transfer vs x1) ([1]; x1=0.40): –25.73 kJ·mol^–1 | G1,3 (Kirkwood–Buff integral) ([1]; x1=0.40): –271.3 cm^3·mol^–1 | G2,3 (Kirkwood–Buff integral) ([1]; x1=0.40): –517.0 cm^3·mol^–1 | 100 δx1,3 (preferential solvation parameter by NMP) ([1]; x1=0.45): 5.28 | D (derivative of Gibbs energy of transfer vs x1) ([1]; x1=0.45): –21.85 kJ·mol^–1 | G1,3 (Kirkwood–Buff integral) ([1]; x1=0.45): –250.7 cm^3·mol^–1 | G2,3 (Kirkwood–Buff integral) ([1]; x1=0.45): –503.6 cm^3·mol^–1 | 100 δx1,3 (preferential solvation parameter by NMP) ([1]; x1=0.50): 4.96 | D (derivative of Gibbs energy of transfer vs x1) ([1]; x1=0.50): –18.40 kJ·mol^–1 | G1,3 (Kirkwood–Buff integral) ([1]; x1=0.50): –234.5 cm^3·mol^–1 | G2,3 (Kirkwood–Buff integral) ([1]; x1=0.50): –487.7 cm^3·mol^–1 | 100 δx1,3 (preferential solvation parameter by NMP) ([1]; x1=0.55): 4.49 | D (derivative of Gibbs energy of transfer vs x1) ([1]; x1=0.55): –15.39 kJ·mol^–1 | G1,3 (Kirkwood–Buff integral) ([1]; x1=0.55): –221.7 cm^3·mol^–1 | G2,3 (Kirkwood–Buff integral) ([1]; x1=0.55): –469.5 cm^3·mol^–1 | 100 δx1,3 (preferential solvation parameter by NMP) ([1]; x1=0.60): 3.93 | D (derivative of Gibbs energy of transfer vs x1) ([1]; x1=0.60): –12.84 kJ·mol^–1 | G1,3 (Kirkwood–Buff integral) ([1]; x1=0.60): –211.6 cm^3·mol^–1 | G2,3 (Kirkwood–Buff integral) ([1]; x1=0.60): –449.4 cm^3·mol^–1 | 100 δx1,3 (preferential solvation parameter by NMP) ([1]; x1=0.65): 3.34 | D (derivative of Gibbs energy of transfer vs x1) ([1]; x1=0.65): –10.75 kJ·mol^–1 | G1,3 (Kirkwood–Buff integral) ([1]; x1=0.65): –203.7 cm^3·mol^–1 | G2,3 (Kirkwood–Buff integral) ([1]; x1=0.65): –428.7 cm^3·mol^–1 | 100 δx1,3 (preferential solvation parameter by NMP) ([1]; x1=0.70): 2.76 | D (derivative of Gibbs energy of transfer vs x1) ([1]; x1=0.70): –9.13 kJ·mol^–1 | G1,3 (Kirkwood–Buff integral) ([1]; x1=0.70): –197.7 cm^3·mol^–1 | G2,3 (Kirkwood–Buff integral) ([1]; x1=0.70): –409.5 cm^3·mol^–1 | 100 δx1,3 (preferential solvation parameter by NMP) ([1]; x1=0.75): 2.24 | D (derivative of Gibbs energy of transfer vs x1) ([1]; x1=0.75): –7.99 kJ·mol^–1 | G1,3 (Kirkwood–Buff integral) ([1]; x1=0.75): –193.3 cm^3·mol^–1 | G2,3 (Kirkwood–Buff integral) ([1]; x1=0.75): –394.9 cm^3·mol^–1 | 100 δx1,3 (preferential solvation parameter by NMP) ([1]; x1=0.80): 1.81 | D (derivative of Gibbs energy of transfer vs x1) ([1]; x1=0.80): –7.33 kJ·mol^–1 | G1,3 (Kirkwood–Buff integral) ([1]; x1=0.80): –190.1 cm^3·mol^–1 | G2,3 (Kirkwood–Buff integral) ([1]; x1=0.80): –388.5 cm^3·mol^–1 | 100 δx1,3 (preferential solvation parameter by NMP) ([1]; x1=0.85): 1.44 | D (derivative of Gibbs energy of transfer vs x1) ([1]; x1=0.85): –7.18 kJ·mol^–1 | G1,3 (Kirkwood–Buff integral) ([1]; x1=0.85): –187.8 cm^3·mol^–1 | G2,3 (Kirkwood–Buff integral) ([1]; x1=0.85): –394.4 cm^3·mol^–1 | 100 δx1,3 (preferential solvation parameter by NMP) ([1]; x1=0.90): 1.10 | D (derivative of Gibbs energy of transfer vs x1) ([1]; x1=0.90): –7.54 kJ·mol^–1 | G1,3 (Kirkwood–Buff integral) ([1]; x1=0.90): –186.0 cm^3·mol^–1 | G2,3 (Kirkwood–Buff integral) ([1]; x1=0.90): –417.8 cm^3·mol^–1 | 100 δx1,3 (preferential solvation parameter by NMP) ([1]; x1=0.95): 0.69 | D (derivative of Gibbs energy of transfer vs x1) ([1]; x1=0.95): –8.41 kJ·mol^–1 | G1,3 (Kirkwood–Buff integral) ([1]; x1=0.95): –184.2 cm^3·mol^–1 | G2,3 (Kirkwood–Buff integral) ([1]; x1=0.95): –467.3 cm^3·mol^–1 | 100 δx1,3 (preferential solvation parameter by NMP) ([1]; x1=1.00): 0.00 | D (derivative of Gibbs energy of transfer vs x1) ([1]; x1=1.00): –9.81 kJ·mol^–1 | G1,3 (Kirkwood–Buff integral) ([1]; x1=1.00): –181.8 cm^3·mol^–1 | G2,3 (Kirkwood–Buff integral) ([1]; x1=1.00): –563.4 cm^3·mol^–1 | Hildebrand solubility parameter δ3, solubility-based [2]: lower than 23.6 MPa^1/2 | Crystal form after saturation (XRD, FTIR) (Solid-phase analyses): did not suffer crystal polymorphic transitions or solvate formation | TΔsolnS° [3]: –26.66 kJ·mol^–1 | ΔsolnG° (apparent Gibbs energy of dissolution) [3]: 34.35 kJ·mol^–1 | ΔsolnH° (apparent enthalpy of dissolution) [3]: 7.69 kJ·mol^–1 | ΔsolnS° (apparent entropy of dissolution) [3]: –87.99 J·mol^–1·K^–1 | Solubility-increasing effect ([4]; Carbitol as cosolvent): 1144 times | Solubility-increasing effect ([4]; N,N-dimethylformamide (DMF) as cosolvent): 11,233 times | Solubility-increasing effect ([4]; N-methylformamide (NMF) as cosolvent): 1399 times | Solubility-increasing effect ([4]; dimethyl sulfoxide (DMSO) as cosolvent): 6956 times
